Results taken from patent US5451564A, “Antimicrobial composition comprising N-hydroxy heterocyclic thiones” (priority 1991, dated 1995).

What was measured:
[1] = aqueous solubility of zinc complex after milling in pyrophosphate solution and dilution with distilled water until clear; type: physicochemical; details: for solubility in the presence of pyrophosphate (in words): relative to absence of oxy-phosphorus compound
Experimental: The concentration of the 2:1 zinc complex was then determined.
The zinc complex was milled in a 0.1 molar solution of tetrasodium pyrophosphate as described in Example 1. This was then diluted with distilled water until a clear solution was obtained.
These solutions were prepared by the method described in Example 1.

[2] = test system: Pseudomonas aeruginosa (ATCC 19429); test: survival of bacteria in shampoo preserved with biocide; type: cell-based
Experimental: A shampoo having the following composition
*Empicol, Empilan and Empigen are registered Trademarks of Albright and Wilson, was prepared by stirring the Empicol ESB70 in water, and then adding the Empilan 2502 followed by the Empigen BB to give a clear homogenous solution. An aqueous solution of citric acid was added with stirring to give a pH of 7. Finally, the sodium chloride was added and the whole diluted to parts by adding water.
Aliquots (20 parts) of the above shampoo were then prepared with concentrations of the biocides indicated in Table 4 at 500, 125, 31.25 and 7.8 ppm of active ingredient.
The above samples were then challenged with a 0.2 parts by volume inoculum of a 24 hour culture of Pseudomonas aeruginosa (ATCC 19429) containing approximately 1×10^8 colony forming units (cfu's) per milliliter. The samples were then incubated in the dark at 25° C., 1 milliliter samples taken after 24 hours, 48 hours and 7 days and the number of surviving bacteria determined.
The procedure described in Example 7 was repeated, except that the compounds and formulations used in that example were replaced by a commercially available formulation of zinc pyrithione or a 1% dispersion of the 2:1 complex of 1-hydroxy-2-pyridinethione and zinc in an aqueous solution of 0.1M tetrasodium pyrophosphate prepared as described in Example 1.

[3] = test system: bacteria, fungi, yeasts and algae; details: in the presence of pyrophosphate salts
Experimental: Further aspects of the present invention are described in the following illustrative examples. Unless otherwise stated all refer to parts by weight.
(§1) In the microbiological testing, the compositions were tested for anti-microbial activity against bacteria and/or fungi including a yeast. The bacteria used were one or more of Eshcerichia coli, Pseudomonas aeruginosa, Staphylococcus aureus and Bacillus subtills. The fungi/yeast used were one or more of Aspergillus niger, Candida albicans, Aureobasidum pullulans, Gliocladium roseum, and Penicillium pinophilum.

[4] = test system: mixed algal suspension (Stichococcus bacillaris, Gloecapsa alpicola, Nostoc commune, Trentepohlia aurea); details: zinc complex of 1-hydroxy-2-pyridinethione as 1% dispersion in 0.1M pyrophosphate (sample a: nil); re-challenge after 2 weeks, examined after 4 weeks
Experimental: A sample containing no biocide was include as a control.
The above aliquots were then inoculated with 0.1 parts by volume of a mixed algal suspension of 7 day cultures of the following algae.
The samples were then incubated at 15° to 20° C. and exposed to artificial illumination of between 700 and 1200 LUX over a two week period, where the illumination was provided from the side and the light varied over a 24 hour period to give 16 hours illumination and 8 hours darkness.
After a two week incubation period, the samples were re-challenged with the mixed algal inoculum, and again examined after a 4 week incubation period. The minimum inhibitory concentration at which algal growth was suppressed was then established by visual assessment.

[5] = test system: Aureobasidum pullulans; details: agar, 4 days at 25° C; 1% dispersion in 0.1 molar pyrophosphate (sample a: nil)
Experimental: as §1
(§2) These test organisms will be referred to hereafter as EC, PA, SA, BS, AN CA, AP, GR and PP respectively.
(§3) The material to be tested was dissolved in a suitable solvent and the solution obtained diluted with a further quantity of the same solvent to give a desired product concentration.
(§4) To a suitable agar medium was added a quantity of the product solution to give a desired concentration of the product. The agar medium containing the product was poured into petri dish plates and allowed to set.
(§5) The test organisms were surface inoculated onto the test plates by means of a multi-point inoculator. Each test plate was inoculated with both bacteria, fungi and yeast. The plates were incubated for four days at 25° C.
(§6) At the end of the incubation period, the plates were assessed visually for growth of the micro-organisms. The concentration of the product which inhibited the growth of a particular micro-organisms was recorded. This is the minimum inhibitory concentration (M.I.C.).
(§7) Generally, the compositions are evaluated against bacteria at the 25 and 100 ppm levels, and against fungi and yeast at the 5, 25 and 100 ppm levels.
(§8) 1% dispersions of the 1:2 zinc complex obtained from 1-hydroxy-2-pyridinethione were prepared in 0.1 molar solutions of various pyrophosphates as described in Example 1.

[6] = test system: Gliocladium roseum; details: agar, 4 days at 25° C; 1% dispersion in 0.1 molar pyrophosphate (sample a: nil)
Experimental: as §1, §2, §3, §4, §5, §6, §7, §8

[7] = test system: Penicillium pinophilum; details: agar, 4 days at 25° C; 1% dispersion in 0.1 molar pyrophosphate (sample a: nil)
Experimental: as §1, §2, §3, §4, §5, §6, §7, §8

[8] = test system: Candida albicans; details: agar, 4 days at 25° C; 1% dispersion in 0.1 molar pyrophosphate (sample a: nil)
Experimental: as §1, §2, §3, §4, §5, §6, §7, §8

[9] = test system: Bacillus subtills; details: agar, 4 days at 25° C; 1% dispersion in 0.1 molar pyrophosphate (sample a: nil)
Experimental: as §1, §2, §3, §4, §5, §6, §7, §8

[10] = test system: Aspergillus niger; details: agar, 4 days at 25° C; 1% dispersion in 0.1 molar pyrophosphate (sample a: nil)
Experimental: as §1, §2, §3, §4, §5, §6, §7, §8

[11] = test system: Eshcerichia coli; details: agar, 4 days at 25° C; 1% dispersion in 0.1 molar pyrophosphate (sample a: nil)
Experimental: as §1, §2, §3, §4, §5, §6, §7, §8

[12] = test system: Pseudomonas aeruginosa; details: agar, 4 days at 25° C; 1% dispersion in 0.1 molar pyrophosphate (sample a: nil)
Experimental: as §1, §2, §3, §4, §5, §6, §7, §8

[13] = test system: Staphylococcus aureus; details: agar, 4 days at 25° C; 1% dispersion in 0.1 molar pyrophosphate (sample a: nil)
Experimental: as §1, §2, §3, §4, §5, §6, §7, §8

S=C([S-])NCCNC(=S)[S-].[Zn+2] [EBD, zinc complex of ethylene bis dithiocarbamate]
solubility in the presence of pyrophosphate (in words) [1]: increased solubility | Solubility ([1]; zinc dithiocarbamate complexes, nil or 0.1 M tetrasodium pyrophosphate): < 5 ppm

CN(C)C(=S)[S-].CN(C)C(=S)[S-].[Zn+2] [ZDM, zinc complex of dimethyldithiocarbamate]
viable bacteria ([2]; 125 ppm, after 24 HRS): < 10 | viable bacteria ([2]; 125 ppm, after 48 HRS): < 10 | viable bacteria ([2]; 500 ppm, after 7 DAYS): < 10 | viable bacteria ([2]; 500 ppm, after 24 HRS): < 10 | viable bacteria ([2]; 500 ppm, after 48 HRS): < 10

On1ccccc1=S.On1ccccc1=S.[Zn] [a, 1:2 zinc complex of 1-hydroxy-2-pyridinethione]
Solubility ([1]; 1:2 zinc complex of 1-hydroxy-2-pyridinethione, pebble milled in 0.1 molar pyrophosphate salt (sample a: nil), diluted with distilled water): < 10 ppm | solubility in the presence of pyrophosphate (in words) [1]: improved solubility | effect of increased solubility in pyrophosphate on microbiological activity [3]: does not adversely affect the microbiological activity | MIC (algal growth suppressed) [4]: 0.64 ppm | MIC AP [5]: 5 ppm | MIC GR [6]: 5 ppm | MIC PP [7]: 5 ppm | MIC CA [8]: 25 ppm | MIC BS [9]: 25 ppm | MIC AN [10]: 25 ppm | MIC EC [11]: 25 ppm | MIC PA [12]: NA (Not active at 100 ppm) | MIC SA [13]: 25 ppm
